In patent US12083118B2, “Substituted 1,1′-biphenyl compounds, analogues thereof, and methods using same” (Arbutus Biopharma Corporation, priority 2018, dated 2024):

Target: PD-L1 (Homo sapiens (Human), UniProt Q9NZQ7)
Assay: HTRF Assay (PD-1/PD-L1)
Type: binding
Conditions: PD-L1 His protein 6 nM, PD-1 Fc protein 6 nM
Description: PD-L1 small molecule inhibitors were diluted by 3-fold starting from 20 μM and a final concentration of 0.001 μM and added to the well. PD-1 Fc protein was added at the final concentration of 6 nM. PD-L1 His protein, PD-L1 small molecule inhibitors, and PD1 Fc proteins were added to the well in this order, with each 5 μl volume, and were incubated for 15 minutes at room temperature. […] The plate was read using PerkinElmer Envision plate reader and data was analyzed by Prism 6 software. Results are illustrated in Table 1

PD-L1, sequence (Q9NZQ7 19-238): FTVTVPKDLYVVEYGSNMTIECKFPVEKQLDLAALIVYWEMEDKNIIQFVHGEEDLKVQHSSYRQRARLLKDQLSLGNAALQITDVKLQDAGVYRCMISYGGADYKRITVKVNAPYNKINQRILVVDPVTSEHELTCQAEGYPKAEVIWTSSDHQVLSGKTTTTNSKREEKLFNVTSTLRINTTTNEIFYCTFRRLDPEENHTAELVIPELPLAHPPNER

Row | Compound | IC50 [nM]
1 | Cc1c(COc2cc(OCc3cncc(C#N)c3)c(CN3CCCC[C@H]3C(=O)O)cc2Cl)cccc1-c1cccc(COc2cc(OCc3cncc(C#N)c3)c(CN3CCCC[C@H]3C(=O)O)cc2Cl)c1C [Example 27, (2S)-1-[[4-[[3-[3-[[4-[[(2S)-2-Carboxy-1-piperidyl]methyl]-2-chloro-5-[(5-cyano-3-pyridyl)methoxy]phenoxy]methyl]-2-methyl-phenyl]-2-methyl-phenyl]methoxy]-5-chloro-2-[(5-cyano-3-pyridyl)methoxy]phenyl]methyl] piperidine-2-carboxylic acid] | 1.3
2 | COc1cc(OCc2cccc(-c3cccc(COc4cc(OC)c(CN5CCCC[C@H]5C(=O)O)cc4Cl)c3C)c2C)c(Cl)cc1CN1CCCC[C@H]1C(=O)O [Example 29, (2S)-1-[[4-[[3-[3-[[4-[[(2S)-2-carboxy-1-piperidyl]methyl]-2-chloro-5-methoxy-phenoxy]methyl]-2-methyl-phenyl]-2-methyl-phenyl]methoxy]-5-chloro-2-methoxy-phenyl]methyl]piperidine-2-carboxylic acid] | 1.2
